Assay results from patent publication US9655965B2, “Radiosensitizer compounds for use in combination with radiation” (priority 2013, dated 2017).
“Also recorded” adds a separate entry of the source.

Legend:
[1] = tested on: human normal cells (GM05757); assay: In vitro radiation-induced toxicity in human normal cells, MTT assay 12 days after X-ray; assay type: cell-based; conditions: GM05757, 12-hr treatment, then 0-10 Gy 225 keV X-ray, MTT at 12 days
Text: Dibromo-diamino-benzene (Dibromo-phenylenediamine, Compound B) was obtained from TCI-America. Diiodo-diaminobenzene (Compound C) were synthesized, purified and crystallized in our laboratory, and the structures and purity were examined by NMR and mass spectrometry. MEM and fetal bovine serum (FBS), penicillin G and streptomycin were obtained from Hyclone Laboratories (UT, USA). Stock solution of cisplatin was freshly prepared in ultrapure water or saline, and stock solutions of Compounds A, B, C, D were prepared in pure ethanol, where the final concentration of ethanol was ≦1% when treated to cells.
A human skin diploid fibroblast (GM05757 cell line) was obtained from the Coriell Cell Repository directly. Fetal bovine serum (FBS) was obtained from Hyclone Laboratories (UT, USA). The GM05757 normal cells were cultivated with MEM (Hyclone) supplemented with 10% FBS, 100 units/mL penicillin G and 100 μg/mL streptomycin (Hyclone). The cells were maintained at 37° C. in a humidified atmosphere containing 5% CO2.
The radiosensitizing effects of RSCs on cell viability were determined by the 3-[4,5-dimethylthiazol-2-yl]-2,5-diphenyl tetrazoliumbromide (MTT) assay. Cells were cultured in 96-well plates (5×10^3 cells/well) for 24 h. The culture medium was replaced by fresh culture medium and incubated for 12 h with varying drug concentrations. The cells were then irradiated by 225 kV X-ray (PRECISION X-RAD IR 225) at a dose rate of 2 Gy/min with various X-ray doses. After irradiation, the cells were incubated for 12 days. The MTT assay of cell viability was then conducted. Briefly, 100 μl new medium without phenol red containing 1.2 mM MTT (sigma) (i.e., adding 10 μl 12 mM MTT stock solution in PBS) were added to each well and incubated for 4 h. […] The surviving fraction was determined by measuring the absorbance at 540 nm (570 nm for SDS solubilization) using a Multiskan Spectrum UV/Vis microplate reader (Thermo Scientific), which is directly proportional to the number of viable cells.

SCID mice = assay: In vivo toxicity of Compound B in SCID mice
Description: The three groups (five 6-8 week SCID mice/group) in the experiment were: (1) control article (5% EtOH/medium); (2) Compound B 5 mg/kg in 5% EtOH/medium; and (3) Compound B 7 mg/kg in 5% EtOH/medium, as shown in Table 1. Compound B was injected IP every day for 10 days.
6.1.2 Mouse and Compound B Solution Preparation: • 6-8 week SCID mice were used in this study; Compound B as an exemplary RSC was dissolved in 5% EtOH: 95% (cell culture) medium (≈1:20).
6-8 week SCID Mice were individually weighed and injected intraperitoneally (IP) according to body weight for an injection concentration as outlined in the study group table above. […]
The overall drug toxicity in mice was observed by a survival assay and body weight measurements, and the acute drug toxicity was measured by blood collection and histology. The hepatotoxicity (ALT, ALP, AST), nephrotoxicity (blood BUN, creatinine), and electrolytes (Na, K, etc) were analyzed by HPLC-mass spectroscopy. […]
All animals were observed post administration, and at least once a day, more if deemed necessary, during the pre-treatment and treatment periods for mortality and morbidity. In particular, animals were monitored for signs of ill health such as body weight loss, change in appetite, behavior changes such as altered gait, lethargy and gross manifestations of stress.

[2] = In vivo pharmacokinetics of Compound B in SCID mice
Text: Blood samples were collected from the saphenous vein of mice at various time points after IP injection of the compound into the mice and then analyzed using HPLC-Mass Spectrometry.

[3] = tested on: human cervical cancer (ME-180) xenograft; assay: Xenograft mouse tumor model of human cervical cancer (ME-180) in female SCID mice; assay type: in vivo
Description: The four groups in the experiment were: (1) control article (5% EtOH/medium); (2) 15 Gy X-ray irradiation; (3) Compound B at 7 mg/kg in 5% EtOH/medium and (4) Compound B at 7 mg/kg in 5% EtOH/medium plus 15 Gy X-ray irradiation, as shown in Table 2.
ME-180 (human cervical cancer) cells were cultured in the ATCC-formulated McCoy's 5 A Medium supplemented with 10% FBS. The cells in a flask were maintained at 37° C. in a humidified atmosphere containing 5% CO2. The cells were rinsed with PBS, trypsined for detachment from the bottom of the flask, mixed with fresh growth medium, and centrifuged to remove the supernatant. The cells were re-suspend with fresh medium to appropriate concentration for inoculation. Injection volume was 50 μl (1×10^6 cells) per animal.
ME-180 tumour cells were implanted subcutaneously into female SCID mice (age 6-8 weeks) in a volume of 50 μL into the left gastrocneumius muscle using a 27-gauge needle. This was established as a subcutaneous (SC) xenograft mouse model of human cervical cancer.
Mice were individually weighed and injected intraperitoneally according to body weight for an injection concentration as outlined in the study group table above. The injection volume was based on 200 μL per 20 g mouse. The skin surface was wiped down with 70% isopropyl alcohol to clean the injection site. Radiation was given using X-rad 225 targeted irradiator to the tumors.
Tumor size was measured as a function of time to assess tumor growth delay associated with treatment using slide caliper and […]. Animals were also weighed at the time of tumour measurement. Tumours in mice were allowed to grow to a maximum of 1000 mm^3 before termination.

Nc1cc(Br)c(Br)cc1N [Compound B, 4,5-dibromo-1,2-phenylenediamine]
radiation toxicity in human normal cells [1]: no radiation toxicity | overall toxicity in mice (survival, body weight) (SCID mice; IP 0, 5 and 7 mg/kg daily for 10 days): no overall drug toxicity; also recorded: no overall toxicity in mice | survival rate of mice (SCID mice; SCID, mouse, in vivo, 10 days): 100% | detection of compound in blood/plasma ([2]; after IP injection): significant levels; also recorded: detected in the plasma | elimination from the body ([2]; after IP injection): well expelled from the body within a few hours | time of highest concentration after i.p. injection ([2]; plasma/blood, IP 0-7 mg/kg, HPLC-Mass Spectrometry): about 20 minutes | time at which concentration dropped to nearly zero ([2]; plasma/blood, after i.p. injection): about 3 hr | suppression of tumor growth ([3]; 7 mg/kg IP 1 hr prior to 15 Gy 225 keV x-ray, versus radiation or compound only): significantly enhanced the suppression of tumor growth | tumor growth delay ([3]; 7 mg/kg plus 15 Gy x-ray, single doses): very significant tumor growth delay in vivo till 21 days | shrinkage of the tumor ([3]; 7 mg/kg plus 15 Gy x-ray, tumor volumes and MRI, Day 21): significant shrinkage of the tumor in mice; also recorded: most significant shrinkage of the tumor in mice
